Test results: US7049313B2, “ATM inhibitors” (Kudos Pharmaceuticals Ltd., priority 2002, dated 2006)

Target: T1, ATM (Homo sapiens, UniProt Q13315)
T1 construct: ATM protein was immunoprecipitated from HeLa cell nuclear extract; endogenous in cells; host or cells: HeLa cell nuclear extract (immunoprecipitate)
Test: In vitro ATM inhibition assay (phosphorylation of GSTp53N66 on serine 15)
Type: biochemical
Experimental: In vitro ATM inhibition Assays
In order to assess the inhibitory action of the compounds against ATM in vitro, the following assay was used to determine IC50 values.
ATM protein was immunoprecipitated from HeLa cell nuclear extract using rabbit polyclonal anti-sera raised to the C-terminal ˜500 amino-acid residues of the human ATM protein. The immunoprecipitation was performed according to the methodology described by Banin, S. et al. (1998). 10 μl of immunoprecipitated ATM in Buffer C (50 mM Hepes, pH 7.4, 6 mM MgCl2, 150 mM NaCl, 0.1 mM sodium orthovanadate, 4 mM MnCl2, 0.1 mM dithiothreitol, 10% glycerol) was added to 32.5 μl of buffer C containing 1 μg of the ATM substrate GSTp53N66 in a V-bottomed 96 well polypropylene plate. The GSTp53N66 substrate is the amino terminal 66 amino acid residues of human wild type p53 fused to glutathione S-transferase. ATM phosphorylates p53 on the residue serine 15 (Banin, S. et al. (1998)). Varying concentrations of inhibitor were then added. […] After 10 minutes of incubation at 37° C., the reactions were initiated by the addition of 5 μl of 500 μM Na-ATP. After 1 hour with shaking at 37° C., 150 μl of phosphate buffered saline (PBS) was added to the reaction and the plate centrifuged at 1500 rpm for 10 minutes. 5 μl of the reaction was then transferred to a 96 well opaque white plate containing 45 μl of PBS to allow the GSTp53N66 substrate to bind to the plate wells. The plate was covered and incubated at room temperature for 1 hour with shaking before discarding the contents. The plate wells were washed twice by the addition of PBS prior to the addition of 3% (w/v) bovine serum albumin (BSA) in PBS. The plate was incubated at room temperature for 1 hour with shaking before discarding the contents and washing twice with PBS. To the wells, 50 μl of a 1:10,000 dilution of primary phosphoserine-15 antibody (Cell Signaling Technology, #9284L) in 3% BSA/PBS was added to detect the phosphorylation event on the serine 15 residue of p53 elicited by the ATM kinase. After 1 hour of incubation at room temperature with shaking, the wells were washed four times with PBS prior to the addition of an anti-rabbit HRP conjugated secondary antibody (Pierce, 31462) with shaking for 1 hour at room temperature. The wells were then washed four times with PBS before the addition of chemiluminescence reagent (NEN Renaissance, NEL105). The plate was then shaken briefly, covered with a transparent plate seal and transferred to a TopCount NXT for chemiluminescent counting. Counts per second, following a one second counting time, were recorded for each reaction.
The enzyme activity for each compound is then calculated using the following equation: […]

T1 sequence (Q13315 whole entry): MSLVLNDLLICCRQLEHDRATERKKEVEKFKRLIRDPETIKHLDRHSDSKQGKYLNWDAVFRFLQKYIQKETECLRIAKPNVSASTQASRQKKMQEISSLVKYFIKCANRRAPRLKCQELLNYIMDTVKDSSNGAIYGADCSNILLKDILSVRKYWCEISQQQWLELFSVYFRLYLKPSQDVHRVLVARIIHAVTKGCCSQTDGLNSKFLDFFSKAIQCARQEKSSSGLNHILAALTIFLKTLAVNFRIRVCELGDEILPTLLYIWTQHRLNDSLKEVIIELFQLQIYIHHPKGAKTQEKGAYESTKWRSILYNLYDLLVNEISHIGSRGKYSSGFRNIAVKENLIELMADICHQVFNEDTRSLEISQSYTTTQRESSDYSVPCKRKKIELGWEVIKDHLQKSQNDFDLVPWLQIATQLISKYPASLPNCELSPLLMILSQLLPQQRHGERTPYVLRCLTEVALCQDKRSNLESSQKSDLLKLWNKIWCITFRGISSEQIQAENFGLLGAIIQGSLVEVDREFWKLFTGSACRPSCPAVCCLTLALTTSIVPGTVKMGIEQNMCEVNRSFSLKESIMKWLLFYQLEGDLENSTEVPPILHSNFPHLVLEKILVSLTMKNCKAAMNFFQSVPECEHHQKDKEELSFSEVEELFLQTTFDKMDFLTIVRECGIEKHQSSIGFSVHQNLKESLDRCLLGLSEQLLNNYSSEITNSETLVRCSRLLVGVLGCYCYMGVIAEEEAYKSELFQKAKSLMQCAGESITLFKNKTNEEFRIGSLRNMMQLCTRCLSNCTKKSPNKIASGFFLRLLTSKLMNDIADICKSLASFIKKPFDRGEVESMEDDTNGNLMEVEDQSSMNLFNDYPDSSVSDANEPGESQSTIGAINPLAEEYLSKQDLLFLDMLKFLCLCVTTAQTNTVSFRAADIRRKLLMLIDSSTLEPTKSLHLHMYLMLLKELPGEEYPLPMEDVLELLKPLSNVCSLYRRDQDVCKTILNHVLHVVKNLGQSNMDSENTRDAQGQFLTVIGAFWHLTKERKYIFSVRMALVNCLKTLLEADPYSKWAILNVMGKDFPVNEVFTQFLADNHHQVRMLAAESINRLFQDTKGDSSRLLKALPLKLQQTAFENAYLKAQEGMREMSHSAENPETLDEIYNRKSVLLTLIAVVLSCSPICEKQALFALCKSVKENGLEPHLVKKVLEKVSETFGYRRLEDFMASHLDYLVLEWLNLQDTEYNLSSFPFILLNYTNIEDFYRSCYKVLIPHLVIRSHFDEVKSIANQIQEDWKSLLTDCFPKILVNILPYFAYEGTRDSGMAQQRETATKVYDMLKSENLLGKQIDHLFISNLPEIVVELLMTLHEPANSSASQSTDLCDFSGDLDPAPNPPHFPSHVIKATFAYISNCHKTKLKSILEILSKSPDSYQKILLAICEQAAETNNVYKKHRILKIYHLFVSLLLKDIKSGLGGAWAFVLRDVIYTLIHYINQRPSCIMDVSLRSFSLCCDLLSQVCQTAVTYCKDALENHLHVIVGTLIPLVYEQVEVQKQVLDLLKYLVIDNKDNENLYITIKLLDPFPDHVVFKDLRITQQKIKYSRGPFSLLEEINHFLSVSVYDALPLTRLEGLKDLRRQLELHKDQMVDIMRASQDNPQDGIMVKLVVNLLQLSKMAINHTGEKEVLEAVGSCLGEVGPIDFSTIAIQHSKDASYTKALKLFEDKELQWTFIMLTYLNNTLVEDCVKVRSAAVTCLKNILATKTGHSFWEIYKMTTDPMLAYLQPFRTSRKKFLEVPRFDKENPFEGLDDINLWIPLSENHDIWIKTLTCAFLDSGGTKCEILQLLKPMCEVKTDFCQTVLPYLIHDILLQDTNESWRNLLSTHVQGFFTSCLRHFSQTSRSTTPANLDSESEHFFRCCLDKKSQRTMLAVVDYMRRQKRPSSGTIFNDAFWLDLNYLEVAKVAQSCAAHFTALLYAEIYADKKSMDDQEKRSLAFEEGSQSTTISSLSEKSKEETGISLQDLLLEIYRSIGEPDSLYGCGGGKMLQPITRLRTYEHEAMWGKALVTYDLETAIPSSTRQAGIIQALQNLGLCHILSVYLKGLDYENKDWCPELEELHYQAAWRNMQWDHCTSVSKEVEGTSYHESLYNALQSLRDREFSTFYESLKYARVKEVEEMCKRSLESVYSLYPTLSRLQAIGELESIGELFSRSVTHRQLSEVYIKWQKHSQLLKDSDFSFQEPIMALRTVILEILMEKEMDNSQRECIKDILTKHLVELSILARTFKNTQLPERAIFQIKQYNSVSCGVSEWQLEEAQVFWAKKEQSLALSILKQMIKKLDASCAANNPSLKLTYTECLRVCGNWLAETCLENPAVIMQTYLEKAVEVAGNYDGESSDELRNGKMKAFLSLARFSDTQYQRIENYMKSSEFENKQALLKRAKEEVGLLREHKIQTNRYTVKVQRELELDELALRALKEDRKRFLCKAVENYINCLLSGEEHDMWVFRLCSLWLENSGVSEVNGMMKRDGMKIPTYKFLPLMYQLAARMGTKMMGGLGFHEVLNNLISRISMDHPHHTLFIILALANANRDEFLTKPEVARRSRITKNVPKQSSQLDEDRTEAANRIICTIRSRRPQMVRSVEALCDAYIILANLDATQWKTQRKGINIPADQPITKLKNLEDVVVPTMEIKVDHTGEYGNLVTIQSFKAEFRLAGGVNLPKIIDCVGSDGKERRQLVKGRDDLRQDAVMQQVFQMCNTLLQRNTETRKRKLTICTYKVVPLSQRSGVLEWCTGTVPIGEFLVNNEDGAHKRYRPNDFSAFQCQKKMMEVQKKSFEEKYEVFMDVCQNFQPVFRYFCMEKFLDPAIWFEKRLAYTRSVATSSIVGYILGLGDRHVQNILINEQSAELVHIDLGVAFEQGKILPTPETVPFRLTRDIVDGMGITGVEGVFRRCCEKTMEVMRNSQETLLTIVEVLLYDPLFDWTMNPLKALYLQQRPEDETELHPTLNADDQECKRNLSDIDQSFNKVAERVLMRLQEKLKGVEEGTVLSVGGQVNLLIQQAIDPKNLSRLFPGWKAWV

Compound | IC50
COC(=O)CC(=O)Nc1ccc2c(c1)Cc1cccc(-c3cc(=O)cc(N4CCOCC4)o3)c1S2 [Compound 23] | < 0.2 µM
O=c1cc(-c2ccc(F)c3c2Sc2ccccc2C3)oc(N2CCOCC2)c1 [Compound 17, 2-(1-Fluoro-9H-thioxanthen-4-yl)-6-morpholin-4-yl-pyran-4-one] | < 0.2 µM
O=c1cc(-c2ccc(F)c3c(=O)c4ccccc4sc23)oc(N2CCOCC2)c1 [Compound 13, 2-(1-Fluoro-9-oxo-9H-thioxanthen-4-yl)-6-morpholin-4-yl-pyran-4-one] | < 20 µM
O=C(NCCc1ccccn1)c1ccc2c(c1)Sc1cccc(-c3cc(=O)cc(N4CCOCC4)o3)c1S2 [Compound 173] | < 0.2 µM
CN1CCCN(CC(=O)Nc2ccc3c(c2)Cc2cccc(-c4cc(=O)cc(N5CCOCC5)o4)c2S3)CC1 [Compound 59] | < 0.2 µM
O=C(CCN1CCNCC1)Nc1ccc2c(c1)Cc1cccc(-c3cc(=O)cc(N4CCOCC4)o3)c1S2 [Compound 70] | < 0.2 µM
O=C(Cc1cccs1)Nc1ccc2c(c1)Cc1cccc(-c3cc(=O)cc(N4CCOCC4)o3)c1S2 [Compound 31] | < 0.2 µM
O=C(NCC1CCCO1)c1ccc2c(c1)Sc1cccc(-c3cc(=O)cc(N4CCOCC4)o3)c1S2 (centres unmarked) [Compound 149] | < 0.2 µM
O=C(Nc1ccc2c(c1)Cc1cccc(-c3cc(=O)cc(N4CCOCC4)o3)c1S2)c1ccc2c(c1)CCO2 [Compound 43] | < 0.2 µM
COc1ccc(CNCCC(=O)Nc2ccc3c(c2)Cc2cccc(-c4cc(=O)cc(N5CCOCC5)o4)c2S3)cc1 [Compound 81] | < 0.2 µM
O=C(Nc1ccc2c(c1)Cc1cccc(-c3cc(=O)cc(N4CCOCC4)o3)c1S2)c1cc(F)cc2c1OCOC2 [Compound 44] | < 0.2 µM
CCN(CC)CCNC(=O)c1ccc2c(c1)Sc1cccc(-c3cc(=O)cc(N4CCOCC4)o3)c1S2 [Compound 181] | < 0.2 µM
Cn1nc(O)cc1C(=O)Nc1ccc2c(c1)Cc1cccc(-c3cc(=O)cc(N4CCOCC4)o3)c1S2 [Compound 35] | < 0.2 µM
O=c1cc(-c2ccc(OCCSc3ncn[nH]3)c3c2Cc2ccccc2S3)oc(N2CCOCC2)c1 [Compound 102] | < 0.2 µM
O=C(NCC1CCCCC1)c1ccc2c(c1)Sc1cccc(-c3cc(=O)cc(N4CCOCC4)o3)c1S2 [Compound 154] | < 0.2 µM
O=C(O)CCC(=O)Nc1ccc2c(c1)Cc1cccc(-c3cc(=O)cc(N4CCOCC4)o3)c1S2 [Compound 48] | < 0.2 µM
O=C(CCN1CCCCC1)Nc1ccc2c(c1)Cc1cccc(-c3cc(=O)cc(N4CCOCC4)o3)c1S2 [Compound 69] | < 0.2 µM
O=C(NCC1CC1)c1ccc2c(c1)Sc1cccc(-c3cc(=O)cc(N4CCOCC4)o3)c1S2 [Compound 152] | < 0.2 µM
O=C(O)C(F)(F)C(F)(F)C(=O)Nc1ccc2c(c1)Cc1cccc(-c3cc(=O)cc(N4CCOCC4)o3)c1S2 [Compound 50] | < 0.2 µM

Compound | IC50
COc1ccccc1C(=O)Nc1ccc2c(c1)Cc1cccc(-c3cc(=O)cc(N4CCOCC4)o3)c1S2 [Compound 29] | < 0.2 µM
O=c1cc(-c2ccc(NS(=O)(=O)Cc3ccccc3)c3c2Sc2ccccc2C3)oc(N2CCOCC2)c1 [Compound 130] | < 0.2 µM
O=C(CCNCCCN1CCOCC1)Nc1ccc2c(c1)Cc1cccc(-c3cc(=O)cc(N4CCOCC4)o3)c1S2 [Compound 80] | < 0.2 µM
S=c1cc(-c2cccc3c2Sc2ccccc2S3)oc(N2CCOCC2)c1 [Compound 18, 2-Thianthren-1-yl-6-morpholin-4-yl-pyran-4-thione] | < 0.2 µM
O=C(Nc1ccc(-c2cc(=O)cc(N3CCOCC3)o2)c2c1Cc1ccccc1S2)c1cccnc1 [Compound 119] | < 0.2 µM
O=C(NC1CCC1)c1ccc2c(c1)Sc1cccc(-c3cc(=O)cc(N4CCOCC4)o3)c1S2 [Compound 153] | < 0.2 µM
O=c1cc(-c2cccc3c2Sc2ccccc2N3)oc(N2CCOCC2)c1 [Compound 135, 2-Morpholin-4-yl-6-(10H-phenothiazin-4-yl)-pyran-4-one] | < 0.2 µM
O=C(CCSc1ncn[nH]1)Nc1ccc2c(c1)Cc1cccc(-c3cc(=O)cc(N4CCOCC4)o3)c1S2 [Compound 82] | < 0.2 µM
O=C(CN(CCO)CCO)Nc1ccc2c(c1)Cc1cccc(-c3cc(=O)cc(N4CCOCC4)o3)c1S2 [Compound 54] | < 0.2 µM
O=C(NCCN1CCCC1)c1ccc2c(c1)Sc1cccc(-c3cc(=O)cc(N4CCOCC4)o3)c1S2 [Compound 167] | < 0.2 µM
O=C(NC1CCCCC1)c1ccc2c(c1)Sc1cccc(-c3cc(=O)cc(N4CCOCC4)o3)c1S2 [Compound 151] | < 0.2 µM
CC(=O)Oc1ccccc1C(=O)Nc1ccc(-c2cc(=O)cc(N3CCOCC3)o2)c2c1Cc1ccccc1S2 [Compound 109] | < 0.2 µM
O=C(NCc1cccnc1)c1ccc2c(c1)Sc1cccc(-c3cc(=O)cc(N4CCOCC4)o3)c1S2 [Compound 171] | < 0.2 µM
O=C(CNCCCN1CCOCC1)Nc1ccc2c(c1)Cc1cccc(-c3cc(=O)cc(N4CCOCC4)o3)c1S2 [Compound 62] | < 0.2 µM
CC(C)CNC(=O)c1ccc2c(c1)Sc1cccc(-c3cc(=O)cc(N4CCOCC4)o3)c1S2 [Compound 145] | < 0.2 µM
CN(C)C(=O)c1ccc2c(c1)Sc1cccc(-c3cc(=O)cc(N4CCOCC4)o3)c1S2 [Compound 140] | < 0.2 µM
CCNC(=O)c1ccc2c(c1)Sc1cccc(-c3cc(=O)cc(N4CCOCC4)o3)c1S2 [Compound 142] | < 0.2 µM
O=C(Nc1ccc2c(c1)Cc1cccc(-c3cc(=O)cc(N4CCOCC4)o3)c1S2)c1csc(-c2cccs2)n1 [Compound 46] | < 0.2 µM
NCCC(=O)Nc1ccc2c(c1)Cc1cccc(-c3cc(=O)cc(N4CCOCC4)o3)c1S2 [Compound 84] | < 0.2 µM

Compound | IC50
O=C(CCN1CCCNCC1)Nc1ccc2c(c1)Cc1cccc(-c3cc(=O)cc(N4CCOCC4)o3)c1S2 [Compound 78] | < 0.2 µM
O=C(NCc1ccccn1)c1ccc2c(c1)Sc1cccc(-c3cc(=O)cc(N4CCOCC4)o3)c1S2 [Compound 170] | < 0.2 µM
O=c1cc(-c2cccc3c2Sc2ccccc2CC3)oc(N2CCOCC2)c1 [Compound 133, 2-(10,11-Dihydro-dibenzo[b,f]thiepin-4-yl)-6-morpholin-4-yl-pyran-4-one] | < 0.2 µM
O=c1cc(-c2ccccc2Sc2ccccc2)oc(N2CCOCC2)c1 [Compound 9, 2-(2-Phenylsulfanyl-phenyl)-6-morpholin-4-yl-pyran-4-one] | < 20 µM
NCCNCCC(=O)Nc1ccc2c(c1)Cc1cccc(-c3cc(=O)cc(N4CCOCC4)o3)c1S2 [Compound 75] | < 0.2 µM
O=C(c1ccc2c(c1)Sc1cccc(-c3cc(=O)cc(N4CCOCC4)o3)c1S2)N1CCCC1 [Compound 156] | < 0.2 µM
O=C(Nc1ccc2c(c1)Cc1cccc(-c3cc(=O)cc(N4CCOCC4)o3)c1S2)c1cccs1 [Compound 30] | < 0.2 µM
O=C(Nc1ccc2c(c1)Cc1cccc(-c3cc(=O)cc(N4CCOCC4)o3)c1S2)c1ccco1 [Compound 27] | < 0.2 µM
CC(C)(C)OC(=O)N1CCN(CCNC(=O)c2ccc3c(c2)Sc2cccc(-c4cc(=O)cc(N5CCOCC5)o4)c2S3)CC1 [Compound 180] | < 0.2 µM
CNC(=O)c1ccc2c(c1)Sc1cccc(-c3cc(=O)cc(N4CCOCC4)o3)c1S2 [Compound 139] | < 0.2 µM
O=C(Nc1ccc2c(c1)Cc1cccc(-c3cc(=O)cc(N4CCOCC4)o3)c1S2)c1cccnc1 [Compound 26] | < 0.2 µM
O=C(NCCc1cnc[nH]1)c1ccc2c(c1)Sc1cccc(-c3cc(=O)cc(N4CCOCC4)o3)c1S2 [Compound 176] | < 0.2 µM
O=C(c1ccc2c(c1)Sc1cccc(-c3cc(=O)cc(N4CCOCC4)o3)c1S2)N1CCOCC1 [Compound 160] | < 0.2 µM
COCCN(CCOC)CCC(=O)Nc1ccc2c(c1)Cc1cccc(-c3cc(=O)cc(N4CCOCC4)o3)c1S2 [Compound 73] | < 0.2 µM
CC(=O)OC(C(=O)Nc1ccc2c(c1)Cc1cccc(-c3cc(=O)cc(N4CCOCC4)o3)c1S2)c1ccccc1 (centres unmarked) [Compound 41] | < 0.2 µM
O=C(CNCCO)Nc1ccc2c(c1)Cc1cccc(-c3cc(=O)cc(N4CCOCC4)o3)c1S2 [Compound 56] | < 0.2 µM
COC(=O)CCC(=O)Nc1ccc2c(c1)Cc1cccc(-c3cc(=O)cc(N4CCOCC4)o3)c1S2 [Compound 39] | < 0.2 µM
CCCNC(=O)c1ccc2c(c1)Sc1cccc(-c3cc(=O)cc(N4CCOCC4)o3)c1S2 [Compound 144] | < 0.2 µM
